Results published in PMC7114261 (Antiviral Research, 2006).
Several values for one entry are separate records, joined by “and”; a condition that tells them apart may be missing. Equal values may be shown once. Read-outs that look alike come from different tables or passages of the source.

Assays:
[1] = test system: SARS-CoV, strain Urbani; assay: microbe, parasite or virus in culture; assay type: cell-based; details: Severe acute respiratory syndrome coronavirus; for IC50: Vero 76, read-out: NR assay IC50
[2] = test system: SARS-CoV, strain Urbani; assay: microbe, parasite or virus in culture; assay type: cell-based, Severe acute respiratory syndrome coronavirus
[3] = test system: SARS-CoV (Urbani); parameters: species or system BALB/c mice; details: mouse, in vivo
[4] = in vivo; details: BALB/c, mouse
[5] = test system: cytokines in lung homogenates; parameters: species or system BALB/c mice; details: mouse, in vivo
[6] = test system: Vero 76 cells; details: African green monkey
[7] = test system: SARS-CoV; details: cited from earlier work
[8] = in vitro; details: African green monkey
[9] = in vitro; details: African green monkey, NR assay CC50
[10] = Severe acute respiratory syndrome coronavirus, Vero 76, read-out: Virus yield reduction assay IC90

Row | SMILES | IC50 [1] [µM] | IC90 [2, 10] [µM] | Virus titer ± S.D., Day 3 [3] | Virus titer ± S.D., Day 7 [3] [log10 CCID50/g] | MTD [4] [mg/kg] | also measured
1 | C#Cc1c(C(N)=O)ncn1[C@@H]1O[C@H](CO)[C@@H](O)[C@H]1O [EICAR, 5-ethynyl-1-β-D-ribofuranosylimidazole-4-carboxamide] | 28 | > 40 | 5.5 ± 0.5 log10 CCID50/g and 5.3 ± 0.3 log10 CCID50/g | 0 | 75 | –
2 | COc1c(C)c2c(c(O)c1C/C=C(\C)CCC(=O)O)C(=O)OC2 [MPA, mycophenolic acid] | > 30 | – | 5.5 ± 0.2 log10 CCID50/g and 5.3 ± 0.5 log10 CCID50/g | 0 | 75 | –
3 | NC(=O)c1ncn([C@@H]2O[C@H](CO)[C@@H](O)[C@H]2O)c1O [Mizoribine, mizoribine] | > 40 | – | 4.9 ± 0.3 log10 CCID50/g and 4.7 ± 0.6 log10 CCID50/g | 0 | 25 | –
4 | NC(=O)c1ncn([C@@H]2O[C@H](COP(=O)(O)O)[C@@H](O)[C@H]2O)n1 [Ribavirin monophosphate] | > 30 | – | – | – | – | –
5 | NC(=O)c1ncn([C@@H]2O[C@H](CO)[C@@H](O)[C@H]2O)n1 [Ribavirin, ribavirin] | 320 | 560 | – | – | – | EC50 ([1]; Vero 76, read-out: EC50 by neutral red uptake assay, n = 4): 270 ± 50 µM; EC90 ([2]; Severe acute respiratory syndrome coronavirus, Caco-2, read-out: EC90 by virus yield reduction assay): 4.1 mM; EC90 ([2]; Severe acute respiratory syndrome coronavirus, MA104, read-out: EC90 by virus yield reduction assay): 0.225 mM; IC90 ([2]; read-out: Virus yield reduction assay IC90): 590 µM; Virus in the lungs of mice sacrificed at day 7 [3]: virus was not detected; Virus titer ([3]; 75 mg/kg): 0 log10 CCID50/g; Virus titer ([3]; ip, 20 mg/kg): 0 log10 CCID50/g; GM-CSF level in lung homogenate [5]: 7.9 ± 1.9 pg/mL and 10.7 ± 0.9 pg/mL and 7.9 ± 0.5 pg/mL and 15.7 ± 4.2 pg/mL; IL-4 level in lung homogenate [5]: 5.9 ± 3.5 pg/mL and 6.3 ± 0.3 pg/mL and 4.9 ± 0.9 pg/mL and 7.3 ± 0.5 pg/mL; IL-5 level in lung homogenate [5]: 25.6 ± 2.0 pg/mL and 34.2 ± 2.1 pg/mL and 19.8 ± 1.7 pg/mL and 33.4 ± 0.4 pg/mL; IL-9 level in lung homogenate [5]: 134.2 ± 39.3 pg/mL and 140.9 ± 6.7 pg/mL and 101.5 ± 25.7 pg/mL and 126.3 ± 67.6 pg/mL; average CC50 [6]: ~1685 µg/mL; IC50 [7]: 2 to 60 µg/mL; CC50 [8]: 283 µM; CC50 [9]: 402 µM
6 | N=C(N)c1ncn([C@@H]2O[C@H](CO)[C@@H](O)[C@H]2O)n1 [Viramidine, viramidine] | > 410 | – | – | – | – | –
